# In the RepoRT retention time repository (doi:10.1021/acs.analchem.2c02893):
# Experiment: RP, Thermo Scientific Acclaim RSLC 120 C18, 100 × 2.1 mm, 2.2 µm, 30 °C, 0.2 mL/min, estimated dead time 1.1 min; A: 90% water + 10% methanol + 0.01% formic acid + 5 mM ammonium formate, pH 3.61; B: methanol + 0.01% formic acid + 5 mM ammonium formate, pH 3.61; gradient (min/%B) 0/1 1/1 2/39 13/99.9 15/99.9 15.1/1 20.1/1
# Details: stereoisomer not certain
row,Compound,LC retention time
1,CON(C)C(=O)Nc1ccc(Br)cc1 [Metobromuron],8.15 min
2,Cc1cc(C)n(-c2nc3ccccc3[nH]2)n1 [Rabenzazole],8.27 min
3,Nc1cn[nH]c(=O)c1Cl [Desphenyl chloridazon],2.32 min
4,CN1C2CCC1C(C(=O)O)C(OC(=O)c1ccccc1)C2 (stereo unspecified) [Benzoylecgonine],4.68 min
5,O=S(=O)(c1ccc(O)cc1)c1ccc(O)cc1 [Bisphenol S],5.35 min
6,CCOP(=S)(OCC)Oc1nc(Cl)n(C(C)C)n1 [Isazophos],9.87 min
7,c1ccc(CN2CCNCC2)cc1 [Benzylpiperazine],4.23 min
8,CN(C)CCCN1c2ccccc2CCc2ccccc21 [Imipramine],8.08 min
9,O=C(NC(=O)c1ccccc1Cl)Nc1ccc(OC(F)(F)F)cc1 [Triflumuron],11.2 min
10,CC1(C)C(C(=O)OC(C#N)c2cccc(Oc3ccccc3)c2)C1C(Br)C(Br)(Br)Br (stereo unspecified) [Tralomethrin],13.6 min
11,COc1ccc2c(c1O)-c1c3c(cc4c1C(C2)N(C)CC4)OCO3 (stereo unspecified) [Bulbocapnine],4.36 min
12,COc1ccc(C(C[N+](C)(C)[O-])C2(O)CCCCC2)cc1 (stereo unspecified) [Venlafaxine-N-oxide],6.94 min
13,CC(=O)Nc1ccc(-c2ccc(C=NN3CC(=O)NC3=O)o2)cc1 [Acetaminodantrolene],5.67 min
14,CN(C)CC(CN1c2ccccc2Sc2ccccc21)N(C)C (stereo unspecified) [Promazine-amino],8.54 min
15,CCCCCOC(=O)Nc1nc(=O)n(C2OC(C)C(O)C2O)cc1F (stereo unspecified) [Capecitabin],7.59 min
16,CN(C)CCN1C(=O)c2ccccc2N(C)c2ccccc21 [Dibenzepin],5.49 min
17,CCC(=O)Nc1ccc(Cl)c(Cl)c1 [Propanil],9.38 min
18,CC(N)Cc1ccc2ccoc2c1 (stereo unspecified) [Benzofuran-6-ylpropan-2-amine<U+00A0>(6-APB)],4.81 min
19,CC1C(=O)OC2CCN3CC=C(COC(=O)C(C)(O)C1(C)O)C23 (stereo unspecified) [Monocrotaline],2.92 min
20,CC(Cc1ccc(C(C)(C)C)cc1)CN1CC(C)OC(C)C1 (stereo unspecified) [Fenpropimorph],10.7 min
21,CN(Cc1cnc2nc(N)nc(N)c2n1)c1ccc(C(=O)NC(CCC(=O)O)C(=O)O)cc1 (stereo unspecified) [Methotrexate],3.96 min
22,CC(O)CCn1cc(C(=O)c2cccc3ccccc23)c2ccccc21 (stereo unspecified) [JWH-073-M-3-OH-Butyl],9.91 min

row,Compound,LC retention time
1,CN(C)CCC=C1c2ccccc2COc2ccc(CC(=O)O)cc21 [Olopatadine],6.89 min
2,CN(C)CCCN1c2ccccc2Sc2ccc(Cl)cc21 [Chlorpromazine],8.89 min
3,Cn1c([N+](=O)[O-])cnc1COC(N)=O [Ronidazole],3.55 min
4,CC(C)(C(=O)O)c1ccc(C(O)CCCN2CCC(C(O)(c3ccccc3)c3ccccc3)CC2)cc1 (stereo unspecified) [Fexofenadine],7.68 min
5,COc1ccc(NC(=O)N(C)C)cc1Cl [Metoxuron],6.17 min
6,CNC(=O)Oc1cccc(C)c1 [Metolcarb],6.59 min
7,CCOc1ccc2c3c1OC1C(O)C=CC4C(C2)N(C)CCC341 (stereo unspecified) [Morphine-Ethyl],4.08 min
8,COC(=O)C(NC(=O)c1nn(Cc2ccc(F)cc2)c2ccccc12)C(C)(C)C (stereo unspecified) [MDMB-FUBINACA],11.3 min
9,O=C(c1cccc2ccccc12)c1nc2ccccc2n1CCCCCF [FUBIMINA],11.6 min
10,Cc1ccccc1-n1c(C)nc2ccccc2c1=O [Methaqualone],7.83 min
11,CCCOC(=O)c1ccc(O)cc1 [Propylparaben],8.36 min
12,O=C(O)COc1nc(Cl)c(Cl)cc1Cl [Triclopyr],7.85 min
13,COc1cc(CC(C)N)c(OC)cc1Cl (stereo unspecified) [DOC],5.67 min
14,CCOC(=O)C1(c2ccccc2)CCC=CC1N(C)C (stereo unspecified) [Tilidine],5.1 min
15,CSC(=O)c1cccc2nnsc12 [Acibenzolar-S-Methyl],9.65 min
16,O=C1Nc2ccc(Cl)cc2C(c2ccccc2Cl)=NC1O (stereo unspecified) [Lorazepam],8.36 min
17,COCC(=O)N(c1c(C)cccc1C)C(C)C(=O)OC (stereo unspecified) [Metalaxyl],8.22 min
18,C#CC1(OC(C)=O)CCC2C3CCC4=CC(=NO)CCC4C3CCC21CC (stereo unspecified) [Norgestimate],11.9 min
19,CCCCCn1cc(C(=O)N2CCN(C)CC2)c2ccccc21 [MEPIRAPIM],7.75 min
20,CC(C)N(C(=O)SCC(Cl)=CCl)C(C)C [Diallate],11.8 min
21,OCCOCCOCCN1CCN(C(c2ccccc2)c2ccc(Cl)cc2)CC1 (stereo unspecified) [Etodroxizine],8.33 min
22,CCCCN(CCCC)CCCC [Tributylamine],5.28 min

row,Compound,LC retention time
1,CCOP(=S)(OCC)SCCSCC [Disulfoton],11.5 min
2,COC(=O)c1ccc(C)cc1C1=NC(C)(C(C)C)C(=O)N1 (stereo unspecified) [Imazamethabenz-methyl],7.16 min
3,O=[N+]([O-])c1cc(C(F)(F)F)c(Cl)c([N+](=O)[O-])c1Nc1ncc(C(F)(F)F)cc1Cl [Fluazinam],12.3 min
4,CC12CCC(=O)C=C1CCC1C2C(O)CC2(C)C(C(=O)CO)CCC12 (stereo unspecified) [Corticosterone],8.74 min
5,COP(=S)(OC)Oc1ccc(S(N)(=O)=O)cc1 [Cythioate],6.19 min
6,NS(=O)(=O)Cc1noc2ccccc12 [Zonisamide],4.53 min
7,CN1C(=O)CC(C)(c2ccccc2)C1=O (stereo unspecified) [Methsuximide],6.71 min
8,CC(C)NC(=O)N1CC(=O)N(c2cc(Cl)cc(Cl)c2)C1=O [Iprodione],10.5 min
9,CCCc1nn(C)c2c(=O)[nH]c(-c3cc(C(C)=O)ccc3OCC)nc12 [Gendenafil],9.81 min
10,c1cncc(C2CCCN2)c1 (stereo unspecified) [Nicotine-Nor],2.44 min
11,Cc1c(N(C)C)c(=O)n(-c2ccccc2)n1C [Aminophenazone. Amidopyrin],5.21 min
12,CCCCCn1cc(C(=O)NC(C(N)=O)C(C)(C)C)c2ccccc21 (stereo unspecified) [ADBICA],11.1 min
13,CNC1C(C)OC(OC2C(C)OC(OC3C(C)=CCC4CC(CC5(C=CC(C)C(C(C)C)O5)O4)OC(=O)C4C=C(C)C(O)C5OCC(=CC=CC3C)C45O)CC2OC)CC1OC (stereo unspecified) [Emamectin B1b],12 min
14,CCC(C)(C)C(=O)OC1CC(C)C=C2C=CC(C)C(CCC3CC(O)CC(=O)O3)C21 (stereo unspecified) [Simvastatin],12.6 min
15,C#CCNC(C)Cc1ccccc1 (stereo unspecified) [Deprenyl-Nor],4.66 min
16,CN(C)CCOC(=O)C(c1ccccc1)C1(O)CCCC1 (stereo unspecified) [Cyclopentolate],6.16 min
17,CNC(CC(C)C)C1(c2ccc(Cl)cc2)CCC1 (stereo unspecified) [Sibutramine-Nor],8.68 min
18,CCOc1ccccc1OS(=O)(=O)NC(=O)Nc1nc(OC)cc(OC)n1 [Ethoxysulfuron],9.32 min
19,Cc1ccc(Cl)c(Nc2ccccc2C(=O)O)c1Cl [Meclofenamic acid],11.3 min
20,CCCCCCCCn1sc(Cl)c(Cl)c1=O [4-5-Dichloro-2-n-octyl-isothiazol-3(2H)-on (DCOIT)],12.5 min
21,CCCN(CCOc1c(Cl)cc(Cl)cc1Cl)C(=O)n1ccnc1 [Prochloraz],11.2 min
22,COP(=O)(OC)C(O)C(Cl)(Cl)Cl (stereo unspecified) [Trichlorfon (Dylox)],5.23 min

row,Compound,LC retention time
1,CCCc1nc(C)c2c(=O)[nH]c(-c3cc(C(=O)CN4CCN(CC)CC4)ccc3OCC)nn12 [Vardenafil-Acetyl],7.16 min
2,CN(Cc1cc(Br)cc(Br)c1N)C1CCCCC1 [Bromhexine],10 min
3,COCCCOc1cc(CC(CC(N)C(O)CC(C(=O)NCC(C)(C)C(N)=O)C(C)C)C(C)C)ccc1OC (stereo unspecified) [Aliskiren],8.87 min
4,CCN(CC)C(=O)c1cccc(C)c1 [DEET (Diethyltoluamide)],8.2 min
5,CNC(C)Cc1ccccc1OC (stereo unspecified) [Methoxyphenamine],4.69 min
6,CN(C)CC(c1ccc(O)cc1)C1(O)CCCCC1 (stereo unspecified) [Venlafaxine-O-Desmethyl (Desvenlafaxine)],4.76 min
7,FC(F)C(F)(F)OCC(Cn1cncn1)c1ccc(Cl)cc1Cl (stereo unspecified) [Tetraconazole],10.1 min
8,CN(C)CCOC(c1ccccc1)c1ccccc1 [Diphenhydramine],6.63 min
9,CCOP(=O)(OCC)SCCSCC.CCOP(=S)(OCC)OCCSCC [Demeton],8.91 min
10,Cc1cc(C)nc(Nc2ccccc2)n1 [Pyrimethanil],9.44 min
11,COc1cccc2c(C(=O)NC3C4(C)CCC(C4)C3(C)C)cn(CCN3CCOCC3)c12 (stereo unspecified) [MN-25],11.7 min
12,Nc1ccc(S(=O)(=O)c2ccc(N)cc2)cc1 [Dapsone],4.13 min
13,CC(=O)Oc1cc(C(C)C)c(OCCN(C)C)cc1C [Moxisylyte],6.21 min
14,Cc1cc(C)nc(NC(=O)NS(=O)(=O)c2ccccc2C(=O)OC2COC2)n1 [Oxasulfuron],6.52 min
15,c1ccc2c(c1)Cc1ccccc1N1CCNCC21 (stereo unspecified) [Mianserine-Nor],6.86 min
16,CC(C)OC(=O)C(O)(c1ccc(Br)cc1)c1ccc(Br)cc1 [Bromopropylate],12.5 min
17,CCC1OC(=O)C(C)C(=O)C(C)C(OC2OC(C)CC(N(C)C)C2O)C(C)(OC)CC(C)C(=O)C(C)C2N(CCCCn3cnc(-c4cccnc4)c3)C(=O)OC12C (stereo unspecified) [Telithromycin],7.25 min
18,O=C(NC(=O)c1c(F)cccc1F)Nc1cc(Cl)c(OC(F)(F)C(F)F)c(Cl)c1 [Hexaflumuron],11.8 min
19,CNCC(O)c1ccc(O)cc1 (stereo unspecified) [Synephrine],1.6 min
20,COC(=O)COc1cc(Cl)c(Cl)cc1Cl [2.4.5-T-methylester],10.8 min
